Source: PMC6988309, “Preclinical efficacy for a novel tyrosine kinase inhibitor, ArQule 531 against acute myeloid leukemia” (Journal of Hematology & Oncology, 2020)
Read-outs that look alike come from different tables or passages of the source.

Legend:
MOLM13 = assay: MTT proliferation assay 72 h, parental MOLM13; type: cell-based, human
Method: (§2) A total of 5000–30,000 cells from the lines above were treated in a 96-well plate for 72 h. CellTiter 96 Aqueous MTS reagent (Promega, Madison, WI) was added to cells followed by a 3-h incubation at 37 °C, 5% CO2. The absorbance was measured at 490 nm using DTX 880 plate reader and the half maximal inhibitory concentration (IC50) was calculated using GraphPad Prism 7 (GraphPad Software, La Jolla, CA) and SAS/STAT software (SAS v9.4 for Windows, SAS Institute, Inc., Cary, NC). For the MOLM-13 resistant and the Ba/F3-FLT3-ITD/TKD cell lines, cells were treated for 72 h and cell viability was evaluated using MTT assay (Roche Diagnostics. Mannheim. Germany) according to the manufacturer’s instructions.

MV4-11 = assay: MTS proliferation assay 72 h, MV4-11; type: cell-based; details: Homo sapiens, MV4-11, read-out: Estimated absolute µM IC50 (95% CI), 4-parameter logistic model
Method: A total of 5000–30,000 cells from the lines above were treated in a 96-well plate for 72 h. CellTiter 96 Aqueous MTS reagent (Promega, Madison, WI) was added to cells followed by a 3-h incubation at 37 °C, 5% CO2. The absorbance was measured at 490 nm using DTX 880 plate reader and the half maximal inhibitory concentration (IC50) was calculated using GraphPad Prism 7 (GraphPad Software, La Jolla, CA) and SAS/STAT software (SAS v9.4 for Windows, SAS Institute, Inc., Cary, NC).

Ba/F3 FLT3-ITD/D835H = assay: MTT proliferation assay 72 h, Ba/F3 FLT3-ITD/D835H; type: cell-based, murine; details: Mus musculus, BaF3, read-out: Estimated absolute µM IC50 and 95% CI
Method: (§3) For the MOLM-13 resistant and the Ba/F3-FLT3-ITD/TKD cell lines, cells were treated for 72 h and cell viability was evaluated using MTT assay (Roche Diagnostics. Mannheim. Germany) according to the manufacturer’s instructions.

BTK phosphorylation = assay: Immunoblot of phospho-BTK; type: cell-based, human; details: AML cell lines; MOLM-13 1 µM for 1 hour (Figure S2)
Method: (§1) Cells were washed in ice-cold PBS then lysed in 1X Cell Lysis Buffer (CST) supplemented with proteinase and phosphatase inhibitors cocktail (Roche). Pierce BCA Protein Assay was used to quantify the protein lysates (Thermo Fisher Scientific, Waltham, MA). For Immunoblotting, 15–25 μg of protein lysate was prepared in 2X or 4X Laemmeli’s sample buffer (Bio-Rad Laboratories, Hercules, CA) and heated for 5 min at 100 °C. Samples were separated on 8% sodium dodecyl sulfate polyacrylamide gel and transferred onto nitrocellulose membrane (Bio-Rad Laboratories, Hercules, CA). The membranes were blocked for 1 h in Blocker BLOTTO Blocking Buffer (Thermo Fisher Scientific, Waltham, MA) or 5% non-fat milk followed by overnight incubation at 4 °C with primary antibody followed by HRP-conjugated secondary antibodies and visualized with chemiluminescent Pierce ECL Substrate (Thermo Fisher Scientific, Waltham, MA) on X-ray films.
Immunoblot analysis for MOLM-13, MV4-11, and OCI-AML3 AML cell lines (representative of 2-3 independent blots). […] Twenty to 25 μg of total protein lysate was loaded per lane.

MOLM-13 = assay: MTS proliferation assay 72 h, MOLM-13
Method: as §2

Ba/F3 FLT3-ITD/F691L = assay: MTT proliferation assay 72 h, Ba/F3 FLT3-ITD/F691L; type: cell-based, murine; details: Mus musculus, BaF3, read-out: Estimated absolute µM IC50 and 95% CI
Method: as §3

[1] = test system: primary AML patient blasts; assay: MTS proliferation assay, primary AML blasts co-cultured with HS5-GFP stroma cells, 96 h; type: cell-based, human; details: HS5-GFP co-culture
Description: For in vitro cytotoxicity experiments (Fig. 1b–d), repeated measures models were used to account for correlations among observations from the same experiment. The percentage of live cells was compared at each concentration with DMSO. […] Mixed effects models were used in experiments described in Additional file 1: Table S4 and Fig. 2c to account for correlations within a single patient. Outcome data were first log-transformed to stabilize variances and reduce skewness. For survival experiments (Figs. 5 and 6a), Kaplan-Meier curves were produced and group differences for Fig. 5 and assessed by the log-rank test and for Fig. 6a, p values have been adjusted for multiple comparisons using Holm’s procedure. p values from experiments with multiple endpoints were adjusted for multiple comparisons using either Holm’s procedure or Dunnett’s test (all comparisons against vehicle/DMSO).
MTS proliferation assay using a human stroma co-culture assay. […] FLT3 wild-type (WT) samples (red) and FLT3-ITD (black). Colony-Forming Unit-Granulocyte and Macrophage (CFU-GM) assay. […] Number of colonies were counted after 14 days (c)

Ba/F3 GFP+IL3 = assay: MTT proliferation assay 72 h, Ba/F3 GFP+IL3; type: cell-based, murine
Method: as §2

Ba/F3 FLT3-ITD/D835Y = assay: MTT proliferation assay 72 h, Ba/F3 FLT3-ITD/D835Y; type: cell-based, murine; details: Mus musculus, BaF3, read-out: Estimated absolute µM IC50 and 95% CI
Method: as §3

Ba/F3 FLT3-ITD = assay: MTT proliferation assay 72 h, Ba/F3 FLT3-ITD; type: cell-based, murine; details: Mus musculus, read-out: Estimated absolute µM IC50 and 95% CI
Method: as §2

[2] = test system: phosphorylated SYK (tyrosine 525/526); assay: Immunoblot of phospho-SYK Tyr525/526; type: cell-based, human; details: MOLM-13, MV4-11, and OCI-AML3, 10-min treatment
Method: as §1, with “Cell lines were serum starved overnight followed by a 10-min treatment. Cells” for “Cells”
Fig. 3 ARQ 531 modulates AML pro-survival kinases. Immunoblot analysis for MOLM-13, MV4-11, and OCI-AML3 AML cell lines (representative of 2-3 independent blots). […] Twenty to 25 μg of total protein lysate was loaded per lane. GAPDH, HSP90, or β-Actin were used as loading controls. a, b Modulation of phosphorylated SFK and downstream targets in FLT3-ITD cell lines MOLM-13 and MV-11, respectively. c, d Modulation of phosphorylated SYK and BTK in all three cell lines

U937 = assay: MTS proliferation assay 72 h, U937; type: cell-based, human
Method: as §2

Ba/F3 FLT3-D835H = assay: MTT proliferation assay 72 h, Ba/F3 FLT3-D835H; type: cell-based, murine; details: Mus musculus, BaF3, read-out: Estimated absolute µM IC50 and 95% CI
Method: as §3

[3] = design: method as in PMID 30093506; details: cynomolgus monkeys, cited from earlier work

O=C(c1ccc(Oc2ccccc2)cc1Cl)c1c[nH]c2ncnc(N[C@@H]3CC[C@@H](CO)OC3)c12 [ARQ 531]
IC50 (MOLM13; Homo sapiens, MOLM-13, 72 h, read-out: Estimated absolute µM IC50 and 95% CI, MTT, 72 h): 1.33 µM | IC50 (MOLM13; read-out: Estimated absolute µM IC50 and 95% CI, MTT, 72 h): 1.3 µM | IC50 (MV4-11): 1.45 µM | IC50 (Ba/F3 FLT3-ITD/D835H): 3.76 µM | effect on BTK phosphorylation (BTK phosphorylation): potently inhibits BTK | IC50 (MOLM-13; Homo sapiens, MOLM-13, 72 h, read-out: Estimated absolute µM IC50 (95% CI)): 0.69 µM | in vitro anti-proliferative activity (MOLM-13; MOLM-13, 1 µM, 72 hours MTS (ibrutinib 1 hour washout)): demonstrated in vitro anti-proliferative activity | IC50 (Ba/F3 FLT3-ITD/F691L): 7.12 µM | Estimated Ratio of proliferation versus vehicle (DMSO) ([1]; 0.005 µM): 0.91 | Estimated Ratio of proliferation versus vehicle (DMSO) ([1]; 0.01 µM): 0.95 | Estimated Ratio of proliferation versus vehicle (DMSO) ([1]; 0.05 µM): 0.92 | Estimated Ratio of proliferation versus vehicle (DMSO) ([1]; 0.1 µM): 0.9 | Estimated Ratio of proliferation versus vehicle (DMSO) ([1]; 0.5 µM): 0.69 | Estimated Ratio of proliferation versus vehicle (DMSO) ([1]; 1 µM): 0.58 | Estimated Ratio of proliferation versus vehicle (DMSO) ([1]; 5 µM): 0.34 | Estimated Ratio of proliferation versus vehicle (DMSO) ([1]; 10 µM): 0.28 | Estimated Ratio of proliferation versus vehicle (DMSO) ([1]; 50 µM): 0.09 | Estimated absolute µM IC50 and 95% CI (Ba/F3 GFP+IL3): Unable to calculate IC50 | IC50 (Ba/F3 FLT3-ITD/D835Y): 7.55 µM | IC50 (Ba/F3 FLT3-ITD): 1.21 µM | effect on phosphorylated SYK (tyrosine 525/526) [2]: inhibited the phosphorylated levels of SYK | resistant to concentrations up to (U937): > 10 µM | Estimated absolute µM IC50 (95% CI) (U937; 4-parameter logistic model): Unable to calculate IC50 | IC50 (Ba/F3 FLT3-D835H): 1.74 µM | plasma half-life (t1/2) ([3]; not calculated due to absence of elimination phase): long plasma half-life | Tmax ([3]; single 10 mg/kg oral dose): ≤ 6 h | oral bioavailability ([3]; single 10 mg/kg oral dose): 72% | share of peak concentration present at 24 h ([3]; single 10 mg/kg oral dose): 75% | Cmax ([3]; single 10 mg/kg oral dose, read-out: maximum concentration (Cmax)): 9 µM
